In patent publication US20070123546A1, “2-amino-7,8-dihydro-6H-pyrido[4,3-d]pyrimidin-5-ones” (Chiron Corporation, priority 2005, published 2007) one finds IC50 data, which are given here for 30 compounds.

This assay concerns the target His-tagged N-terminal ATP binding domain (amino acid residues 9-236) of HSP90α (Homo sapiens, UniProt P07900). The assay is described as follows: HSP90 inhibitor binding potency: TRF competition binding assay. The following applies: Table 3; competition with biotinylated radicicol. A digest of the protocol: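 His-tagged HSP90α N-domain (residues 9-236) incubated 2 h at room temperature with biotinylated radicicol and increasing compound in 50 mM HEPES, 6 mM MgCl2, 20 mM KCl, 0.1% BSA. Bound tracer captured on streptavidin plates, detected with europium anti-His antibody by time-resolved fluorescence; IC50 derived.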

The structures appear in SMILES notation. Where only a bound is given, the exact number is not on record here.

Turning to `COc1nc(-c2cc(F)ccc2[C@H]2Cc3nc(N)ncc3C(=O)N2)cnc1N` [Compound 97, (R)-2-Amino-7-[2-(5-amino-6-methoxy-pyrazin-2-yl)-4-fluoro-ohenyl]-7,8-dihydro-6H-pyrido[4,3-d]pyrimidin-5-one], the IC50 (as a rule, the concentration that inhibits the measured activity by half) is less than 10 µM.

For `Nc1ncc2c(n1)C[C@H](c1ccc(F)cc1)NC2=O` [Compound 98, (R)-2-Amino-7-(4-fluoro-phenyl)-7,8-dihydro-6H-pyrido[4,3-d]pyrimidin-5-one], the IC50 was less than 10 µM. For `COc1nc(-c2cc(F)ccc2C2Cc3nc(N)nc(C)c3C(=O)N2)cnc1N` (stereo not drawn) [Compound 99, 2-Amino-7-[2-(5-amino-6-methoxy-pyrazin-2-yl)-4-fluoro-phenyl]-4-methyl-7,8-dihydro-6H-pyrido[4,3-d]pyrimidin-5-one] the value was less than 10 µM; for `COc1nc(-c2cc(F)ccc2[C@@H]2Cc3nc(N)nc(C)c3C(=O)N2)cnc1N` [Compound 100, (S)-2-Amino-7-[2-(5-amino-6-methoxy-pyrazin-2-yl)-4-fluoro-phenyl]-4-methyl-7,8-dihydro-6H-pyrido[4,3-d]pyrimidin-5-one], more than 10 µM; for `COc1nc(-c2cc(F)ccc2[C@H]2Cc3nc(N)nc(C)c3C(=O)N2)cnc1N` [Compound 101, (R)-2-Amino-7-[2-(5-amino-6-methoxy-pyrazin-2-yl)-4-fluoro-phenyl]-4-methyl-7,8-dihydro-6H-pyrido[4,3-d]pyrimidin-5-one], less than 10 µM. The compound `Cc1nc(N)nc2c1C(=O)N[C@@H](c1ccc(F)cc1)C2` [Compound 102, (R)-2-Amino-7-(4-fluoro-phenyl)-4-methyl-7,8-dihydro-6H-pyrido[4,3-d]pyrimidin-5-one] yielded an IC50 of less than 10 µM. For `Cc1nc(N)nc2c1C(=O)N[C@@H](c1ccccc1)C2` [Compound 103, (R)-2-Amino-4-methyl-7-phenyl-7,8-dihydro-6H-pyrido[4,3-d]pyrimidin-5-one] the value was less than 10 µM.

Compound `COc1nc(-c2ccccc2[C@H]2Cc3nc(N)nc(C)c3C(=O)N2)cnc1N` [Compound 104, (R)-2-Amino-7-[2-(5-amino-6-methoxy-pyrazin-2-yl)-phenyl]-4-methyl-7,8-dihydro-6H-pyrido[4,3-d]pyrimidin-5-one] gave an IC50 of less than 10 µM. On to `C=CCN1C(=O)c2c(C)nc(N)nc2C[C@@H]1c1ccc(F)cc1-c1cnc(N)c(OC)n1` [Compound 105, (R)-6-Allyl-2-amino-7-[2-(5-amino-6-methoxy-pyrazin-2-yl)-4-fluoro-phenyl]-4-methyl-7,8-dihydro-6H-pyndo[4,3-d]pyrimidin-5-one], for which the IC50 is less than 10 µM. For the compound `CCN1C(=O)c2c(C)nc(N)nc2C[C@@H]1c1ccc(F)cc1-c1cccc(OC)n1` [Compound 106, (R)-2-Amino-6-ethyl-7-[4-fluoro-2-(6-methoxy-pyridin-2-yl)-phenyl]-4-methyl-7,8-dihydro-6H-pyrido[4,3-d]pyrimidin-5-one], the half-inhibitory concentration (IC50) was less than 10 µM. For the compound `CCN1C(=O)c2c(C)nc(N)nc2C[C@@H]1c1ccc(F)cc1-c1cccnc1OC` [Compound 107, (R)-2-Amino-6-ethyl-7-[4-fluoro-2-(2-methoxy-pyridin-3-yl)-phenyl]-4-methyl-7,8-dihydro-6H-pyrido[4,3-d]pyrimidin-5-one], the IC50 is less than 10 µM.

Regarding `CCN1C(=O)c2c(C)nc(N)nc2C[C@@H]1c1ccc(F)cc1-c1cncc(OC)n1` [Compound 108, (R)-2-Amino-6-ethyl-7-[4-fluoro-2-(6-methoxy-pyrazin-2-yl)-phenyl]-4-methyl-7,8-dihydrp-6H-pyrido[4,3-d]pyrimidin-5-one], the IC50 is less than 10 µM. As for `CCN1C(=O)c2c(C)nc(N)nc2C[C@@H]1c1ccc(F)cc1-c1cccnc1` [Compound 110, (R)-2-Amino-6-ethyl-7-(4-fluoro-2-pyridin-3-yl-phenyl)-4-methyl-7,8-dihydro-6H-pyrido[4,3-d]pyrimidin-5-one], the IC50 is less than 10 µM.

`CCN1C(=O)c2c(C)nc(N)nc2C[C@@H]1c1ccc(F)cc1-c1cnc(OC)nc1OC` [Compound 111, (R)-2-Amino-7-[2-(2,4-dimethoxy-pyrimidin-5-yl)-4-fluoro-phenyl]-6-ethyl-4-methyl-7,8-dihydro-6H-pyrido[4,3-d]pyrimidin-5-one]: the IC50 was more than 10 µM. Take `Cc1nc(N)nc2c1C(=O)N(Cc1ccccc1)[C@@H](c1ccc(F)cc1-c1ncc(Cl)c(O)n1)C2` [Compound 112, (R)-2-Amino-6-benzyl-7-[2-(5-chloro-4-hydroxy-pyrimidin-2-yl)-4-fluoro-phenyl]-4-methyl-7,8-dihydro-6H-pyrido[4,3-d]pyrimidin-5-one]: the IC50 was more than 10 µM.

`COc1cncc(-c2cc(F)ccc2[C@H]2Cc3nc(N)nc(C)c3C(=O)N2CCO)n1` [Compound 113, (R)-2-Amino-7-[4-fluoro-2-(6-methoxy-pyrazin-2-yl)-phenyl]-6-(2-hydroxy-ethyl)-4-methyl-7,8-dihydro-6H-pyrido[4,3-d]pyrimidin-5-one] gave an IC50 of less than 10 µM. For `COc1ccc(CN2C(=O)c3c(C)nc(N)nc3C[C@@H]2c2ccc(F)cc2Br)c(OC)c1` [Compound 114, (R)-2-Amino-7-(2-bromo-4-fluoro-phenyl)-6-(2,4-dimethoxy-benzyl)-4-methyl-7,8-dihydro-6H-pyrido[4,3-d]pyrimidin-5-one] the value was more than 10 µM; for `COc1cncc(-c2cc(F)ccc2[C@H]2Cc3nc(N)nc(C)c3C(=O)N2Cc2cccc(Cl)c2)n1` [Compound 115, (R)-2-Amino-6-(3-chloro-benzyl)-7-[4-fluoro-2-(6-methoxy-pyrazin-2-yl)-phenyl]-4-methyl-7,8-dihydro-6H-pyrido[4,3-d]pyrimidin-5-one], less than 10 µM. Then `COc1cccc(-c2cc(F)ccc2[C@H]2Cc3nc(N)nc(C)c3C(=O)N2Cc2cccc(Cl)c2)n1` [Compound 116, (R)-2-Amino-6-(3-chloro-benzyl)-7-[4-fluoro-2-(6-methoxy-pyridin-2-yl)-phenyl]-5-methyl-7,8-dihydro-6H-pyrido[4,3-d]pyrimidin-5-one], with less than 10 µM. Compound `COc1ncc(-c2cc(F)ccc2[C@H]2Cc3nc(N)nc(C)c3C(=O)N2Cc2cccc(Cl)c2)nc1OC` [Compound 117, (R)-2-Amino-6-(3-chloro-benzyl)-7-[2-(5,6-dimethoxy-pyrazin-2-yl)-4-fluoro-phenyl]-4-methyl-7,8-dihydro-6H-pyrido[4,3-d]pyrimidin-5-one] gave an IC50 of less than 10 µM. In turn, `COc1ccc(CN2C(=O)c3c(C)nc(N)nc3C[C@@H]2c2ccc(F)cc2-c2cncc(OC)n2)c(OC)c1` [Compound 118, (R)-2-Amino-6-(2,4-dimethoxy-benzyl)-7-[4-fluoro-2-(6-methoxy-pyrazin-2-yl)-phenyl]-4-methyl-7,8-dihydro-6H-pyrido[4,3-d]pyrimidin-5-one] came in with an IC50 of less than 10 µM. Take `COc1ccc(CN2C(=O)c3c(C)nc(N)nc3C[C@@H]2c2ccc(F)cc2-c2cccc(OC)n2)c(OC)c1` [Compound 119, (R)-2-Amino-6-(2,4-dimethoxy-benzyl)-7-[4-fluoro-2-(6-methoxy-pyridin-2-yl)-phenyl]-4-methyl-7,8-dihydro-6H-pyrido[4,3-d]pyrimidin-5-one]: the IC50 is less than 10 µM. Then `COc1cccc(-c2cc(F)ccc2[C@H]2Cc3nc(N)nc(C)c3C(=O)N2Cc2ccncc2)n1` [Compound 120, (R)-2-Amino-7-[4-fluoro-2-(6-methoxy-pyridin-2-yl)-phenyl]-4-methyl-6-pyridin-4-ylmethyl-7,8-dihydro-6H-pyrido[4,3-d]pyrimidin-5-one], with less than 10 µM. In turn, `COc1cncc(-c2cc(F)ccc2[C@H]2Cc3nc(N)nc(C)c3C(=O)N2Cc2ccncc2)n1` [Compound 121, (R)-2-Amino-7-[4-fluoro-2-(6-methoxy-pyrazin-2-yl)-phenyl]-4-methyl-6-pyridin-4-ylmethyl-7,8-dihydro-6H-pyrido[4,3-d]pyrimidin-5-one] gave an IC50 of less than 10 µM. Take `COc1nc(-c2cc(F)ccc2[C@H]2Cc3nc(N)nc(C)c3C(=O)N2Cc2ccncc2)cnc1N` [Compound 122, (R)-2-Amino-7-[2-(5-amino-6-methoxy-pyrazin-2-yl)-4-fluoro-phenyl]-4-methyl-6-pyridin-4-ylmethyl-7,8-dihydro-6H-pyrido[4,3-d]pyrimidin-5-one]: the IC50 is less than 10 µM. Then `COc1cccc(-c2cc(F)ccc2[C@H]2Cc3nc(N)nc(C)c3C(=O)N2Cc2ccccc2F)n1` [Compound 123, (R)-2-Amino-6-(2-fluoro-benzyl)-7-[4-fluoro-2-(6-methoxy-pyridin-2-yl)-phenyl]-4-methyl-7,8-dihydro-6H-pyrido[4,3-d]pyrimidin-5-one], with less than 10 µM. For the compound `COc1nc(-c2cc(F)ccc2[C@H]2Cc3nc(N)nc(C)c3C(=O)N2Cc2ccccc2F)cnc1N` [Compound 124, (R)-2-Amino-7-[2-(5-amino-6-methoxy-pyrazin-2-yl)-4-fluoro-phenyl]-6-(2-fluoro-benzyl)-4-methyl-7,8-dihydro-6H-pyrido[4,3-d]pyrimidin-5-one], the IC50 is less than 10 µM. `COc1cccc(-c2cc(F)ccc2[C@H]2Cc3nc(N)nc(C)c3C(=O)N2Cc2ccccc2Cl)n1` [Compound 125, (R)-2-Amino-6-(2-chloro-benzyl)-7-[4-fluoro-2-(6-methoxy-pyridin-2-yl)-phenyl]-4-methyl-7,8-dihydro-6H-pyrido[4,3-d]pyrimidin-5-one] yielded an IC50 of less than 10 µM. `COc1nc(-c2cc(F)ccc2[C@H]2Cc3nc(N)nc(C)c3C(=O)N2Cc2ccccc2Cl)cnc1N` [Compound 126, (R)-2-Amino-7-[2-(5-amino-6-methoxy-pyrazin-2-yl)-4-fluoro-phenyl]-6-(2-chloro-benzyl)-4-methyl-7,8-dihydro-6H-pyrido[4,3-d]pyrimidin-5-one] displayed an IC50 of less than 10 µM. In turn, `COc1cncc(-c2cc(F)ccc2[C@H]2Cc3nc(N)nc(C)c3C(=O)N2Cc2cccc(C(F)(F)F)c2)n1` [Compound 127, (R)-2-Amino-7-[4-fluoro-2-(6-methoxy-pyrazin-2-yl)-phenyl]-4-methyl-6-(3-trifluoromethyl-benzyl)-7,8-dihydro-6H-pyrido[4,3-d]pyrimidin-5-one] yielded a half-inhibitory concentration (IC50) of less than 10 µM.
